According to patent US5962314A, “Calcium receptor-active molecules” (priority 1997, dated 1999):

Key:
cyclic AMP = format: cell-based, bovine
Method: Cells were incubated as above for PTH secretion studies and at the end of the incubation, a 0.15-ml sample was taken and transferred to 0.85 ml of hot (70° C.) water and heated at this temperature for 5-10 minutes. The tubes were subsequently frozen and thawed several times and the cellular debris sedimented by centrifugation. Portions of the supernatant were acetylated and cyclic AMP concentrations determined by radioimmunoassay.
Each value is the mean±SEM of three experiments.

serum ionized calcium [1] = experiment: serum ionized Ca2+ in parathyroidectomized rats; format: in vivo, rat; conditions: NPS R-467 10 mg/kg i.p., 6 hours; NPS R-568 oral
Excerpt: To determine the primary target tissue upon which NPS R-467 acts to cause a hypocalcemic response, the parathyroid glands in rats were surgically removed. Animals receiving a total parathyroidectomy become hypocalcemic and are largely dependent upon dietary calcium to maintain serum Ca^2+ homeostasis.

serum ionized calcium [2] = experiment: serum ionized calcium in a human; format: in vivo; conditions: higher single oral doses
Excerpt: (§1) A range of single oral doses was used to assess safety, tolerance, and changes in primary hyperparathyroidism markers (e.g., plasma concentrations of parathyroid hormone and ionized serum calcium) and of serum calcitonin.

serum calcitonin = serum calcitonin in a human; format: in vivo; conditions: single oral doses studied
Excerpt: as §1

calcitonin = calcitonin levels in rats; format: in vivo, rat; conditions: NPS R-568 p.o.
serum ionized calcium [3] = experiment: serum ionized Ca2+ in rats; format: in vivo, rat; conditions: NPS R-568 oral
Method: Compounds shown to activate the bovine parathyroid cell calcium receptor in vitro were tested for hypocalcemic activity in vivo. Male Sprague-Dawley rats (200 g) were maintained on a low calcium diet for one week prior to receiving test substance or vehicle as control. Blood was collected from the tail vein three hours after the intra-peritoneal administration of NPS 467. […] Serum total calcium, albumin and phosphate were measured by techniques well known in the art.
Rats (male, Sprague-Dawley, 250-300 g) were fed standard rat chow and fasted overnight prior to the experiment. NPS R-467 was suspended in corn oil and administered as a single oral dose through a gavage needle. Three hours later a sample of blood was taken from the tail vein and assessed for ionized Ca^2+ levels.

SMILES	effect on isoproterenol-induced increases in cyclic AMP (cyclic AMP)	effect on serum ionized Ca2+ in parathyroidectomized rats (serum ionized calcium [1])	effect on serum ionized calcium in human (serum ionized calcium [2])	effect on serum calcitonin in human (serum calcitonin)	effect on calcitonin, oral (calcitonin)	hypocalcemic response after complete nephrectomy (serum ionized calcium [3]; prior complete nephrectomy)	effect on serum Ca2+, oral (serum ionized calcium [3]; rats)
NC[C@@H]1O[C@H](O[C@H]2[C@@H](O)[C@H](O[C@@H]3[C@@H](O)[C@H](N)C[C@H](N)[C@H]3O[C@H]3O[C@H](CN)[C@@H](O)[C@H](O)[C@H]3N)O[C@@H]2CO)[C@H](N)[C@@H](O)[C@@H]1O [Neomycin]	depressed isoproterenol-induced increases in cyclic AMP						
COc1cccc([C@@H](C)NCCCc2ccccc2Cl)c1 [NPS R-568, (R)-(+)-N-[3-(2-chlorophenyl)propyl]-α-methyl-3-methoxybenzylamine]		fails to elicit a hypocalcemic response	decrease in serum ionized calcium concentration	no apparent change in serum calcitonin	increase in calcitonin	only marginally affected	dose-dependent decrease in the levels of serum Ca^2+
